# Source: ChEMBL document CHEMBL1201862, “PubChem BioAssay data set” (2004)
# Several values for one entry are separate records, joined by “and”; a condition that tells them apart may be missing. Identical values can stand only once.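 Where inhibition never reached the appropriate level, the endpoint shown equals the highest concentration tested. Otherwise, values were interpolated linearly from a five-concentration, 48-hour dose response in 96-well plates. The concentration for 50% growth inhibition is given as GI50.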 Activity calls are given as the source filed them. Cut-off read from the data, not from the text of the source: active = GI50 up to about 1.1 µM and inactive = higher.
# Key:
# Assay in all cases: NCI-60 cell line screen, 48 h
# NCI-H460 = test system: NCI-H460
# 786-0 = test system: 786-0
# IGROV-1 = test system: IGROV-1
# MCF7 = test system: MCF7
# UACC-257 = test system: UACC-257
# OVCAR-3 = test system: OVCAR-3
# HOP-62 = test system: HOP-62
# A549 = test system: A549
# RXF 393 = test system: RXF 393
# SN12C = test system: SN12C
# SK-MEL-5 = test system: SK-MEL-5
# HL-60 = test system: HL-60
# HOP-92 = test system: HOP-92
# MOLT-4 = test system: MOLT-4
# SF-295 = test system: SF-295
# HCT-116 = test system: HCT-116
# UO-31 = test system: UO-31
# RPMI-8226 = test system: RPMI-8226
# CCRF-CEM = test system: CCRF-CEM
Compound,GI50 (NCI-H460),GI50 (786-0),GI50 (IGROV-1),GI50 (MCF7),GI50 (UACC-257),GI50 (OVCAR-3),GI50 (HOP-62),GI50 (A549),GI50 (RXF 393),GI50 (SN12C),GI50 (SK-MEL-5),GI50 (HL-60),GI50 (HOP-92),GI50 (MOLT-4),GI50 (SF-295),GI50 (HCT-116),GI50 (UO-31),GI50 (RPMI-8226),GI50 (CCRF-CEM)
O=C1c2ccccc2C(=O)N1c1ccc(Cc2ccc(N3C(=O)c4ccccc4C3=O)cc2)cc1,> 100 µM (inactive),> 100 µM (inactive),> 100 µM (inactive),> 100 µM (inactive),> 100 µM (inactive),> 21.9 µM (inactive),49.9 µM (inactive),> 100 µM (inactive),> 100 µM (inactive),> 100 µM (inactive),> 100 µM (inactive),< 0.01 µM (active),> 100 µM (inactive),3.02 µM (inactive),> 50.7 µM (inactive),> 100 µM (inactive),> 100 µM (inactive),> 100 µM (inactive),
CC(=O)c1c(-c2cccc3ccccc23)c(C#N)c(=S)n(C2OC(CO)C(O)C(O)C2O)c1C (configuration not stated),> 100 µM (inactive),> 100 µM (inactive),> 100 µM (inactive),> 100 µM (inactive),69 µM (inactive),> 100 µM (inactive),54.8 µM (inactive),> 100 µM (inactive),83.6 µM (inactive),81.3 µM (inactive),> 100 µM (inactive),,56.8 µM (inactive),38.9 µM (inactive) and 49.3 µM (inactive),> 100 µM (inactive),> 100 µM (inactive),87.5 µM (inactive),53.2 µM (inactive),56 µM (inactive) and 51.4 µM (inactive)
COc1cccc(/C=N/NC(=O)CN(C)C)c1O,> 100 µM (inactive),> 100 µM (inactive),> 100 µM (inactive),> 100 µM (inactive),> 100 µM (inactive),> 100 µM (inactive),> 100 µM (inactive),> 100 µM (inactive),> 100 µM (inactive),> 100 µM (inactive),> 100 µM (inactive),> 100 µM (inactive),> 100 µM (inactive),> 100 µM (inactive),> 100 µM (inactive),> 100 µM (inactive),> 100 µM (inactive),,> 100 µM (inactive)
N[C@@H]1c2c(Br)sc(Br)c2[C@H](O)[C@@H]1O,> 100 µM (inactive),> 100 µM (inactive),> 100 µM (inactive),> 100 µM (inactive),> 100 µM (inactive),> 100 µM (inactive),,> 100 µM (inactive),> 100 µM (inactive),> 100 µM (inactive),> 100 µM (inactive),> 100 µM (inactive),> 100 µM (inactive),> 100 µM (inactive),> 100 µM (inactive),> 100 µM (inactive),> 100 µM (inactive),,> 100 µM (inactive)
CC(C)C[P+](c1ccccc1)(c1ccccc1)c1ccccc1,5.89 µM (inactive),41.5 µM (inactive),13.3 µM (inactive),3.31 µM (inactive),0.342 µM (active),2.31 µM (inactive),13.7 µM (inactive),6.22 µM (inactive),,12.3 µM (inactive),2.86 µM (inactive),2.29 µM (inactive),3.32 µM (inactive),3.57 µM (inactive),13.2 µM (inactive),4.3 µM (inactive),45.5 µM (inactive),< 0.01 µM (active),0.419 µM (active)
CCOC(=O)C1=CC(C)(C(=O)OCC)Nc2c(nc(OC)[nH]c2=O)N1 (configuration not stated),> 10 µM (inactive),> 10 µM (inactive),> 10 µM (inactive),> 10 µM (inactive),> 10 µM (inactive),> 10 µM (inactive),> 10 µM (inactive),> 10 µM (inactive),> 10 µM (inactive),> 10 µM (inactive),> 10 µM (inactive),,> 10 µM (inactive),> 10 µM (inactive),> 10 µM (inactive),> 10 µM (inactive),> 10 µM (inactive),> 10 µM (inactive),> 10 µM (inactive)
